{"source": "patent US6669945B1", "about": "“Universal T-cell epitopes for anti-malarial vaccines” (New York University, priority 1997, dated 2003)", "key": {"DR 1 (DRB1*0101)": {"molecular_target": "T1, DR 1 (DRB1*0101) (Homo sapiens, UniProt P01903+P01911, A100R/D57E/F55L/F60I/F76Y/I96L/L162R/M171V/P40L/Q125E/R42F/V115G/Y59C)", "T1 construct": "The class II molecules in the cell extracts were purified by immunoaffnity; endogenous in cells", "assay": "biochemical", "type": "binding", "details": "DR 1 DRB1*0101, biotinyl-peptide GFK(A)7; read-out: Competitor Peptide IC50"}, "DR 2 (DRB5*0101)": {"molecular_target": "T2, DR 2 (DRB5*0101) (Homo sapiens, UniProt P01903+Q30154)", "T2 construct": "expressed in transfected cells; host or cells: L cell transfectant L416.3", "assay": "biochemical", "type": "binding", "details": "DR 2 DRB5*0101, biotinyl-peptide MBP; read-out: Competitor Peptide IC50"}, "DR 3 (DRB1*0301)": {"molecular_target": "T3, DR 3 (DRB1*0301) (Homo sapiens, UniProt P01903+P01911, A100K/A102G/A103R/A169T/F55Y/I96L/K41T/L162R/M171V/P40S/Q125H/Q178H/Q39Y/R42S/S66N/T106N/T262R/W38E/Y61H)", "T3 construct": "The class II molecules in the cell extracts were purified by immunoaffnity; endogenous in cells", "assay": "biochemical", "type": "binding", "details": "DR 3 DRB1*0301, biotinyl-peptide IAYD(A)5; read-out: Competitor Peptide IC50"}, "DR 4 (DRB1*0401)": {"molecular_target": "T4, DR 4 (DRB1*0401) (Homo sapiens, UniProt P01903+P01911, A100K/A169T/F76Y/I96L/K127E/L162R/M171V/N62H/P40V/Q125Y/R42H/S133A/S149N/S66Y/V115G/V209L/W38E)", "T4 construct": "The class II molecules in the cell extracts were purified by immunoaffnity; endogenous in cells", "assay": "biochemical", "type": "binding"}, "DR 7 (DRB1*0701)": {"molecular_target": "DR 7 (DRB1*0701) (Homo sapiens, UniProt P01903+P01911, A100R/A102G/A103Q/D57E/D86V/E43K/F76Y/K127E/L162R/M171V/P40G/Q125H/Q99D/R33Q/R42Y/R54Q/S133A/S66F/T210M/V115G/Y107V/Y59L/Y89S)", "assay": "biochemical", "type": "binding", "details": "DR 7 DRB1*0701, biotinyl-peptide GFK(A)7, pH 5; read-out: Competitor Peptide IC50"}, "DR 8 (DRB1*0801)": {"molecular_target": "DR 8 (DRB1*0801) (Homo sapiens, UniProt P01903+P01911, A100R/A103L/A169T/D86S/F76Y/H45Y/I96F/K41T/L162R/M171V/P40S/Q125H/Q178H/Q39Y/Q99D/R218S/R42G/S66Y/V115G/W38E)", "assay": "biochemical", "type": "binding", "details": "DR 8 DRB1*0801, biotinyl-peptide GYR(A)6L; read-out: Competitor Peptide IC50"}, "DR 11 (5) (DRB1*1101)": {"molecular_target": "DR 11 (5) (DRB1*1101) (Homo sapiens, UniProt P01903+P01911, A100R/A169T/A87E/I96F/K41T/L162R/M171V/P40S/Q125H/Q178H/Q39Y/Q99D/R42S/S66Y/T262R/V115G/W38E)", "assay": "biochemical", "type": "binding", "details": "DR 11 (5) DRB1*1101, biotinyl-peptide TT831-843; read-out: Competitor Peptide IC50"}, "DR 13 (DRB1*1301)": {"molecular_target": "DR 13 (DRB1*1301) (Homo sapiens, UniProt P01903+P01911, A100E/A169T/K41T/L162R/M171V/P40S/Q125H/Q178H/Q39Y/Q99D/R42S/S66N/T262R/W38E/Y61H)", "assay": "biochemical", "details": "soluble DR 13, indicator GFK(A)7 (FIG. 2B); read-out: IC50, inhibition of binding of biotinylated GFK(A)7"}, "[1]": {"molecular_target": "T5, DQ 9 (DQA1*0201/DQB1*0303) (Homo sapiens, UniProt P01909+P01920, A45G/C70K/E183D/E77G/F237L/F77L/G63E/H199R/I129T/K197E/L178F/L74F/Q57E/Q76R/R75H/S185I/S97I/T217I/V73L/Y48F/Y58L)", "T5 construct": "made in house; host or cells: insect cells, baculovirus expression system", "assay": "Peptide competition assay, soluble DQ molecules", "type": "binding", "details": "soluble DQ 9 (FIG. 3A)"}, "[2]": {"molecular_target": "DQ 7 (DQA1*0501/DQB1*0301) (Homo sapiens, UniProt P01909+P01920)", "assay": "Peptide competition assay, soluble DQ molecules", "type": "binding", "details": "soluble DQ 7 (FIG. 3B)"}, "[3]": {"tested_on": "EBV-B cell line 9065 (DRB1*1301/DQB1*0603)", "assay": "Flow cytometry binding of biotinylated peptides to EBV-B cells", "set-up": "species or system human", "details": "biotinylated peptide, EBV-B 9065 cells", "procedure": "For flow cytometry, EBV-B cells or L cells (2×10^5 cells), were incubated with an equal volume (100 μl) of biotinylated peptide (200 μg/ml) in each well of a U-bottomed 96-well plate. Following a 4-hour incubation on ice with gentle agitation, the unbound peptides were removed by washing. To increase the sensitivity of the fluorescent signal, two layers of FITC-Avidin were used to label the cells by incubating first with FITC-Avidin D, followed by biotinylated anti-Avidin D and again FITC-Avidin DCS (Vetor, Burlingame Calif.). Propidium Iodide (2.8 μg/ml) was added prior to FACS analysis to allow gating on viable cells."}}, "note": "Read-outs that look alike come from different tables or passages of the source. Where no end group is shown, it is not given here. The star is where a group is joined. Biotin = O=C1N[C@H]2[C@H](CS[C@H]2CCCCC(=O)*)N1"}
{"compound": "CC(C)[C@H](NC(=O)[C@H](CC(N)=O)NC(=O)[C@@H]1CCCN1C(=O)[C@H](CC(N)=O)NC(=O)[C@H](C)NC(=O)[C@H](CC(N)=O)NC(=O)[C@@H]1CCCN1C(=O)[C@H](CC(=O)O)NC(=O)[C@@H](NC(=O)[C@H](CC(N)=O)NC(=O)[C@@H]1CCCN1C(=O)[C@H](CC(N)=O)NC(=O)[C@H](C)NC(=O)[C@H](CC(N)=O)NC(=O)[C@@H]1CCCN1C(=O)[C@@H](N)CC(=O)O)C(C)C)C(=O)O", "note": "[T1]", "values": [{"measurement": "IC50", "setting": "DR 1 (DRB1*0101)", "value": "> 100", "unit": "µM"}, {"measurement": "IC50", "setting": "DR 2 (DRB5*0101)", "value": "> 100", "unit": "µM"}, {"measurement": "IC50", "setting": "DR 3 (DRB1*0301)", "value": "> 100", "unit": "µM"}, {"measurement": "IC50", "setting": "DR 4 (DRB1*0401); DR 4 DRB1*0401, biotinyl-peptide UD4, read-out: Competitor Peptide IC50", "value": "> 100", "unit": "µM"}, {"measurement": "IC50", "setting": "DR 4 (DRB1*0401); soluble DR 4, indicator GFK(A)7 (FIG. 2A), read-out: IC50, inhibition of binding of biotinylated GFK(A)7", "value": "> 100", "unit": "µM"}, {"measurement": "IC50", "setting": "DR 7 (DRB1*0701)", "value": "> 100", "unit": "µM"}, {"measurement": "IC50", "setting": "DR 8 (DRB1*0801)", "value": "> 100", "unit": "µM"}, {"measurement": "IC50", "setting": "DR 11 (5) (DRB1*1101)", "value": "> 100", "unit": "µM"}, {"measurement": "IC50", "setting": "DR 13 (DRB1*1301)", "value": "> 100", "unit": "µM"}]}
{"compound": "CSCC[C@H](NC(=O)[C@H](CCCNC(=N)N)NC(=O)[C@H](CCSC)NC(=O)[C@H](CCCCN)NC(=O)[C@H](CO)NC(=O)[C@@H](NC(=O)[C@@H]1CCCN1C(=O)[C@H](CCCCN)NC(=O)[C@@H]1CCCN1C(=O)[C@@H]1CCCN1C(=O)[C@@H](N)CCCCN)C(C)C)C(=O)N[C@@H](C)C(=O)N[C@H](C(=O)N1CCC[C@H]1C(=O)N[C@@H](CC(C)C)C(=O)N[C@@H](CC(C)C)C(=O)N[C@@H](CCSC)C(=O)N[C@@H](CCC(N)=O)C(=O)N[C@@H](C)C(=O)O)[C@@H](C)O", "note": "[CLIP83-101]", "values": [{"measurement": "IC50", "setting": "[1]", "value": 0.5, "unit": "µM"}, {"measurement": "IC50", "setting": "[2]", "value": 0.5, "unit": "µM"}]}
{"compound": "Biotinyl-T1: NH2 terminal biotinylated T1 peptide (Biotin-DPNANPNVDPNANPNV)", "values": [{"measurement": "MFC", "setting": "[3]", "value": "could not be detected"}]}
